Data: patent US20050170331A1, “Method for characterizing metabolic stability of a drug” (priority 2003, published 2005)

Test system: hepatocytes
Experiment: Metabolic stability in hepatocyte suspension by hyperpolarised 13C NMR
Format: in vitro ADME
Conditions: hepatocytes 1·10^6 cells/ml in RPMI 1640, 37° C., 30 s incubation, drug candidate approximately 0.46 mM, DNP hyperpolarised
Experimental: The concentration of hepatocytes was 1·10^6 cells/ml in a suspension of RPMI 1640 medium. 1 ml of this suspension was placed in a 10 mm NMR tube with a bottom plug, reducing the active volume to […]. The tube was placed in a 9.4 T magnet with the temperature of the probe equilibrated to 37° C. A tube was connected to the bottom of the NMR tube to allow for injection of the hyperpolarised drug candidate solution into the cell suspension.
^13C2-sodiumfumerate was diluted in water and mixed (1:1 w/w) with a glycerol solution containing 40 mM trityl. The liquid sample was frozen as droplets in liquid nitrogen. 84.3 mg of this sample (3.84 mg of ^13C2-sodiumfumerate) was placed in the polariser and hyperpolarised for two hours at 93.945 GHz and 100 mW (DNP method). The dissolution was performed with Tris buffer containing 100 mg/l EDTA (pH 7.4, 20 mM, 6 ml). The active dissolution volume was 5.5 ml with full recovery of the sample. A 1 ml syringe was filled completely (volume: 1100 μl) with the dissolved ^13C2-sodiumfumerate solution, a total of 100 μl of this solution was quickly transferred to the liquid-NMR magnet and injected into the cell suspension, resulting in a total drug candidate concentration of approximately 0.46 mM. […]

Question: Which “metabolites of the drug candidate observed in the 13C NMR spectrum of the mixture” value does the source give for `O=C([O-])/C=C/C(=O)[O-].[Na+].[Na+]` [^13C2-sodiumfumerate] here?
Answer: The value was “two different metabolites of the drug candidate, namely succinate and malate”.
